In article PMC10800876, “Evaluation of proline-rich antimicrobial peptides as potential lead structures for novel antimycotics against Cryptococcus neoformans” (Frontiers in Microbiology, 2024):
Where two headings read alike, the source gives them in different places.

Legend:
[1] = test system: C. neoformans strains 1841, H99, and KN99α; test: Broth microdilution assay (MIC); assay type: cell-based, Cryptococcus neoformans
C. neoformans 1841 = test: Antifungal activity assay (CFU on SAB agar); assay type: cell-based, Cryptococcus neoformans; conditions: treatment 3 h, 30 °C, mean ± SD, n = 4; for cell count C. neoformans 1841, 24 h: CFU counted after 24 h; for cell count C. neoformans 1841, 48 h: CFU counted after 48 h
C. neoformans H99 = test: Antifungal activity assay (CFU on SAB agar); assay type: cell-based, Cryptococcus neoformans; conditions: treatment 3 h, 30 °C, mean ± SD, n = 4; for cell count C. neoformans H99, 24 h: CFU counted after 24 h; for cell count C. neoformans H99, 48 h: CFU counted after 48 h
C. neoformans KN99α = test: Antifungal activity assay (CFU on SAB agar); assay type: cell-based, Cryptococcus neoformans; conditions: treatment 3 h, 30 °C, mean ± SD, n = 4; for cell count C. neoformans KN99α, 24 h: CFU counted after 24 h; for cell count C. neoformans KN99α, 48 h: CFU counted after 48 h
[2] = test system: HepG2 and HEK293 cell lines; test: Cytotoxicity (MTT), for both cell lines; assay type: cell-based, human; conditions: 125 mg/L, 24 h
Method: Human embryonic kidney (HEK293) and human hepatoma (HepG2) cells were cultured in Dulbecco’s modified Eagle’s/Ham’s F-12 medium (DMEM/F-12) containing 10% (v/v) fetal bovine serum and 1% (v/v) penicillin/streptomycin. Cells (20,000 in 200 μL per well) were seeded into a 96-well plate (polystyrene F-bottom, Greiner Bio-One GmbH) and incubated for 24 h (37°C, 5% CO2). Cells were washed with PBS (100 μL) and peptide solutions (0.6 g/L in DMEM/F-12) were added. The positive control was a dilution series from 12 to 1.5% (v/v) DMSO and the negative control was 12% (v/v) PBS. After incubation (37°C, 24 h, 5% CO2), the supernatant was discarded, fresh medium (90 μL/well) and MTT (10 μL/well, 5 g/L in PBS) were added, and the plate was incubated for 4 h (37°C, 5% CO2). A solution (100 μL) of sodium dodecyl sulfate (10% (v/v)) in hydrochloric acid (10 mmol/L) was added and the plate was incubated again for 24 h (37°C, 5% CO2). Absorbance was recorded at 570 nm relative to the reference at 650 nm ([…] ™ microplate reader). All samples were corrected for the background absorbance of the medium. Relative cell viability was calculated as the ratio of absorbances recorded for treated and untreated cells ([Kolano et al., 2021]; [Brakel et al., 2022a],[b]).

[3] = test system: C. neoformans 1841 (serotype D); test: microbe, parasite or virus in culture; conditions: Cryptococcus neoformans
[4] = test system: C. neoformans H99 (serotype A); test: microbe, parasite or virus in culture; conditions: Cryptococcus neoformans
[5] = test system: C. neoformans KN99α (serotype A, mating type MATα); test: microbe, parasite or virus in culture; conditions: Cryptococcus neoformans

With `C[C@@H]1[C@H](O)[C@@H](C)/C=C/C=C/C=C/C=C/C=C/C=C/C=C/[C@H](O[C@@H]2O[C@H](C)[C@@H](O)[C@H](N)[C@@H]2O)C[C@@H]2O[C@](O)(C[C@@H](O)C[C@@H](O)[C@H](O)CC[C@@H](O)C[C@@H](O)CC(=O)O[C@H]1C)C[C@H](O)[C@H]2C(=O)O` [Amphotericin B, reference compound] the “MIC” value [1] was < 0.2 µg/mL, the MIC ([1]; Cryptococcus neoformans, read-out: MIC) was < 0.22 µM and the “cell count C. neoformans 1841, 24 h” value (C. neoformans 1841; 0.25 µmol/L) was 1.4 ± 0.3 x 10^4 CFU/mL. The “cell count C. neoformans 1841, 48 h” value (C. neoformans 1841; 0.25 µmol/L) was 1.4 ± 0.3 x 10^4 CFU/mL, the “cell count C. neoformans 1841, 24 h” value (C. neoformans 1841; 2.5 µmol/L) was 0.0 ± 0.0 x 10^4 CFU/mL and the “cell count C. neoformans 1841, 48 h” value (C. neoformans 1841; 2.5 µmol/L) was 0.0 ± 0.0 x 10^4 CFU/mL. For the same compound, the “cell count C. neoformans 1841, 24 h” value (C. neoformans 1841; 25 µmol/L) was 0.0 ± 0.0 x 10^4 CFU/mL, the “cell count C. neoformans 1841, 48 h” value (C. neoformans 1841; 25 µmol/L) was 0.0 ± 0.0 x 10^4 CFU/mL and the “cell count C. neoformans H99, 24 h” value (C. neoformans H99; 0.25 µmol/L) was 0.9 ± 0.7 x 10^4 CFU/mL. For the same compound, the “cell count C. neoformans H99, 48 h” value (C. neoformans H99; 0.25 µmol/L) was 1.1 ± 0.7 x 10^4 CFU/mL, the “cell count C. neoformans H99, 24 h” value (C. neoformans H99; 2.5 µmol/L) was 0.0 ± 0.0 x 10^4 CFU/mL and the “cell count C. neoformans H99, 48 h” value (C. neoformans H99; 2.5 µmol/L) was 0.0 ± 0.0 x 10^4 CFU/mL. For the same compound, the “cell count C. neoformans H99, 24 h” value (C. neoformans H99; 25 µmol/L) was 0.0 ± 0.0 x 10^4 CFU/mL, the “cell count C. neoformans H99, 48 h” value (C. neoformans H99; 25 µmol/L) was 0.0 ± 0.0 x 10^4 CFU/mL and the “cell count C. neoformans KN99α, 24 h” value (C. neoformans KN99α; 0.25 µmol/L) was 2.4 ± 1.5 x 10^4 CFU/mL. The “cell count C. neoformans KN99α, 48 h” value (C. neoformans KN99α; 0.25 µmol/L) was 2.5 ± 1.7 x 10^4 CFU/mL, the “cell count C. neoformans KN99α, 24 h” value (C. neoformans KN99α; 2.5 µmol/L) was 0.1 ± 0.1 x 10^4 CFU/mL and the “cell count C. neoformans KN99α, 48 h” value (C. neoformans KN99α; 2.5 µmol/L) was 0.1 ± 0.1 x 10^4 CFU/mL. For the same compound, the “cell count C. neoformans KN99α, 24 h” value (C. neoformans KN99α; 25 µmol/L) was 0.0 ± 0.0 x 10^4 CFU/mL, the “cell count C. neoformans KN99α, 48 h” value (C. neoformans KN99α; 25 µmol/L) was 0.0 ± 0.0 x 10^4 CFU/mL and the “cytotoxicity” value [2] was “strong cytotoxicity”. It also gave an MIC ([3]; 24 h, pH 7.5, read-out: MIC (μmol/L) 1841 24 h) of 0.06 to 0.23 µmol/L, an MIC ([3]; 24 h, read-out: MIC (mg/L) 1841 24 h) of 0.06 to 0.12 mg/L and an MIC ([3]; 48 h, pH 7.5, read-out: MIC (μmol/L) 1841 48 h) of 0.13 µmol/L. For the same compound, the MIC ([3]; 48 h, read-out: MIC (mg/L) 1841 48 h) was 0.12 mg/L, the MIC ([4]; 24 h, read-out: MIC (mg/L) H99 24 h) was < 0.02 mg/L and the MIC ([4]; 24 h, read-out: MIC (μmol/L) H99 24 h) was < 0.02 µmol/L. For the same compound, the MIC ([4]; 48 h, read-out: MIC (mg/L) H99 48 h) was 0.04 to 0.08 mg/L, the MIC ([4]; 48 h, read-out: MIC (μmol/L) H99 48 h) was 0.04 to 0.09 µmol/L and the MIC ([5]; 24 h, read-out: MIC (mg/L) KN99α 24 h) was 0.08 mg/L. It also gave an MIC ([5]; 24 h, read-out: MIC (μmol/L) KN99α 24 h) of 0.09 µmol/L, an MIC ([5]; 48 h, read-out: MIC (mg/L) KN99α 48 h) of 0.16 mg/L and an MIC ([5]; 48 h, read-out: MIC (μmol/L) KN99α 48 h) of 0.17 µmol/L.
